What is called EC50 is the concentration giving half of the maximal effect.

Results on 45 molecules are retold here after patent US11992535B2, “Compounds and probes for imaging huntingtin protein” (CHDI Foundation, Inc., priority 2019, dated 2024).

This experiment deals with aggregated MBP-HTT(1-89)Q46-His(6×) (Exonl-Q46) protein (Q46 protein aggregates) (Homo sapiens (Human), UniProt P42858, INS38QQQQQQQQQQQQQQQQQQQQQQQQQ). Kind of experiment: Q46 Radioligand Binding Assay. Particulars: read-out: Q46_RBA EC50_. As for the experimental part:
Q46 Radioligand Binding Assay
For radioligand binding assays (RBA) MBP-HTT(1-89)Q46-His(6×) (“Exonl-Q46”) protein was generated based on a previous publication (Scherzinger et al. Cell, Vol. 90, 549-558, Aug. 8, 1997). For experiments 30 μM MBP-Exonl-Q46 was incubated with 150 μg/mL thrombin in assay buffer (150 mM NaCl, 50 mM Tris pH 8.0) and 2 mM CaCl2 for 16 hours at 37° C. Aggregated Exonl-Q46 was pelleted by centrifugation for 5 minutes at 13,000 rpm in a bench top centrifuge and re-dissolved in the same volume of assay buffer. Test compounds were prepared by titration in DMSO at 11 concentrations from 63 μM to 2 nM. For the RBA, Q46 protein aggregates and test compounds were pre-incubated in assay buffer for 20 minutes at room temperature, in 100 μL/well in a 96-well plate (pp, round bottom). Then, ligand was added in 50 μL/well and incubated for 60 minutes at 37° C. Final assay concentrations were 1 μM to 30 μM test compound, 1 μM Exonl-Q46 protein (equivalent monomer concentration) and 0.3 nM ligand [^3H3-methyl]-5-((5-methoxypyridin-2-yl)methoxy)-2-(pyrazin-2-yl)benzo[d]oxazole. Samples were transferred onto GF/B filter plates and washed 2× with 200 μL PBS using a Filtermate Harvester. After drying filter plates for 1 hour at 55° C., the back of the plates were sealed with foil and 30 μL/well scintillation fluid (Packard MicroScint 40) added, incubated for 15 minutes in the dark and counted in a MicroBeta reader. For analysis, replicate data from independent assay plates were normalized towards 0% and 100% inhibition using control wells of vehicle (0% inhibition) and 1 μM unlabelled [^3H3-methyl]-5-((5-methoxypyridin-2-yl)methoxy)-2-(pyrazin-2-yl)benzo[d]oxazole (100% inhibition). IC50 values were determined with a sigmoidal inhibition model with four variables (top, bottom, slope, IC50) in a global fit using the normalized replicate data.

The mark [1] stands for this setting: displacement of 0.3 nM [3H3-methyl]-5-((5-methoxypyridin-2-yl)methoxy)-2-(pyrazin-2-yl)benzo[d]oxazole from 1 μM Exonl-Q46 aggregates, method calls the values IC50.
Setting [2] is: same radioligand displacement on Exonl-Q46 aggregates.

Where two headings read alike, the source gives them in different places.

Sequence of aggregated MBP-HTT(1-89)Q46-His(6×) (Exonl-Q46) protein (Q46 protein aggregates) (P42858 other isoform, or with tags, fused parts or gaps, stated change not applied): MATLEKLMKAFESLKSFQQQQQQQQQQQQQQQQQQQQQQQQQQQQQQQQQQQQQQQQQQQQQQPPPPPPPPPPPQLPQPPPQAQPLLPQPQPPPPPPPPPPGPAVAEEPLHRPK

Consider `COc1ccc(COc2ccc3c(c2)CN(C(=O)c2ccc(OC)nc2)CC3)nc1` [Example 1, 7-[(5-Methoxypyridin-2-yl)methoxy]-2-(6-methoxypyridine-3-carbonyl)-1,2,3,4-tetrahydroisoquinoline], for which the EC50 under setting [1] was determined as 1.24 nM and the EC50 under setting [2] is below 100 nM.

With `COc1ccc(COc2ccc3c(c2)CN(C(=O)c2ccc(=O)n(C)n2)CC3)nc1` [Example 1.1], the EC50 was 7.75 nM under setting [1] and below 100 nM under setting [2].

Take `COc1ccc(COc2ccc3c(c2)CCN(C(=O)c2ccc(OC)nn2)C3)nc1` [Example 1.2]: the EC50 is, setting by setting: under setting [1], 48.9 nM; under setting [2], below 100 nM.

As for `COc1ccc(COc2ccc3c(c2)CCN(C(=O)c2ccc(=O)n(C)n2)C3)nc1` [Example 1.3], the EC50 under setting [1] worked out at 46.4 nM and the EC50 under setting [2] is below 100 nM.

For the molecule `COc1ccc(COc2ccc3c(c2)CCN(C(=O)c2ccc(OC)nc2)C3)nc1` [Example 1.4], the EC50 is 8.48 nM under setting [1] and below 100 nM under setting [2].

Take `COc1ccc(COc2ccc3c(c2)CN(C(=O)c2cncc(OC)c2)CC3)nc1` [Example 1.5]: the EC50 is, setting by setting: under setting [1], 5.59 nM; under setting [2], below 100 nM.

For the molecule `COc1ccc2c(c1)CN(C(=O)c1ccc(OC)nc1)CC2` [Example 1.6], the EC50 runs as follows: under setting [1], 333 nM; under setting [2], 100 to 500 nM.

As to `COc1ccc(COc2ccc3c(c2)CN(C(C)=O)CC3)nc1` [Example 1.7], the EC50 by setting is: under setting [1], 96.5 nM; under setting [2], below 100 nM.

In the case of `COc1ccc(COc2ccc3c(c2)CN(C(=O)c2cnc(OC)cn2)CC3)nc1` [Example 1.8], the EC50 under setting [1] was 1.2 nM and the EC50 under setting [2] is below 100 nM.

As for `COc1ccc(COc2ccc3c(c2)CN(C(=O)c2cccnc2)CC3)nc1` [Example 1.9], the EC50 is 27.8 nM under setting [1] and below 100 nM under setting [2].

On to `COc1ccc(COc2ccc3c(c2)CN(C(=O)c2ccc(OC)cn2)CC3)nc1` [Example 1.10], for which the EC50 runs as follows: under setting [1], 5 nM; under setting [2], below 100 nM.

Turning to `COc1ccc(COc2ccc3c(c2)CN(C(=O)c2ccc(OC)nn2)CC3)nc1` [Example 1.11], the EC50 under setting [1] was found to be 5.2 nM and the EC50 under setting [2] is below 100 nM.

As for `COc1ccc(COc2cccc3c2CCN(C(=O)c2ccc(OC)nc2)C3)nc1` [Example 1.12], the EC50 runs as follows: under setting [1], 34.1 nM; under setting [2], below 100 nM.

Turning to `COc1ccc(COc2cccc3c2CN(C(=O)c2ccc(OC)nc2)CC3)nc1` [Example 1.13], the EC50 runs as follows: under setting [1], 87.5 nM; under setting [2], below 100 nM.

Take `COc1ccc(COc2ccc3c(c2)CN(C(=O)c2ccc(N(C)C)nc2)CC3)nc1` [Example 1.14]: the concentration for a half-maximal effect (EC50) by setting is: under setting [1], 1.8 nM; under setting [2], below 100 nM.

`COc1ccc(COc2ccc3c(c2)CN(C(=O)C2CCN(C)CC2)CC3)nc1` [Example 1.15]: the EC50 by setting is: under setting [1], 951 nM; under setting [2], above 500 nM.

On to `COc1ccc(COc2cnc3c(c2)CN(C(=O)c2ccc(OC)nc2)CC3)nc1` [Example 1.16], for which the EC50 runs as follows: under setting [1], 5.73 nM; under setting [2], below 100 nM.

In the case of `COc1ccc(COc2ccc3c(c2)CN(C(=O)c2ccc(C(F)(F)F)nc2)CC3)nc1` [Example 1.17], the EC50 runs as follows: under setting [1], 2.54 nM; under setting [2], below 100 nM.

In the case of `COc1ccc(COc2cnc3c(c2)CN(C(=O)c2cncc(OCCF)c2)CC3)nc1` [Example 1.18], the EC50 by setting is: under setting [1], 65 nM; under setting [2], below 100 nM.

In the case of `COc1ccc(COc2ccc3c(c2)CN(C(=O)c2ccc(=O)n(CCCF)c2)CC3)nc1` [Example 1.19], the EC50 reads like this: under setting [1], 5.45 nM; under setting [2], below 100 nM.

For the molecule `COc1ccc(COc2ccc3c(c2)CN(C(=O)c2ccc(=O)n(CCF)n2)CC3)nc1` [Example 1.20], the EC50 under setting [1] amounted to 4.24 nM and the EC50 under setting [2] is below 100 nM.

With `COc1ccc(COc2cnc3c(c2)CN(C(=O)c2ccnc(OC)c2)CC3)nc1` [Example 1.21], the EC50 is 16.3 nM under setting [1] and below 100 nM under setting [2].

As for `COc1ccc(COc2ccc3c(c2)CN(C(=O)c2cnc(OC)nc2)CC3)nc1` [Example 1.22], the EC50 reads like this: under setting [1], 2.1 nM; under setting [2], below 100 nM.

On to `COc1ccc(COc2cnc3c(c2)CN(C(=O)c2ccnc(OCCF)c2)CC3)nc1` [Example 1.23], for which the EC50 by setting is: under setting [1], 23 nM; under setting [2], below 100 nM.

`COc1ccc(COc2ccc3c(c2)CN(C(=O)c2cnn(C)c2)CC3)nc1` [Example 1.24]: the EC50 is 7.87 nM under setting [1] and below 100 nM under setting [2].

With `COc1ccc(COc2ccc3c(c2)CN(C(=O)c2ccc(C)nc2)CC3)nc1` [Example 1.25], the EC50 is 2.91 nM under setting [1] and below 100 nM under setting [2].

Consider `COc1ccc(C(=O)N2CCc3ccc(OCc4ccc(OC)cn4)cc3C2)cc1` [Example 1.26], for which the concentration for a half-maximal effect (EC50) reads like this: under setting [1], 1.78 nM; under setting [2], below 100 nM.

On to `COc1ccc(C(=O)N2CCc3ccc(OCc4cnn(C)c4)cc3C2)cn1` [Example 1.27], for which the EC50 was 52.4 nM under setting [1] and below 100 nM under setting [2].

Turning to `COc1ccc(COc2cnc3c(c2)CN(C(=O)c2cncc(OC)c2)CC3)nc1` [Example 1.28], the EC50 is, setting by setting: under setting [1], 29.4 nM; under setting [2], below 100 nM.

Take `COc1ccc(COc2cnc3c(c2)CN(C(=O)c2ccn(CCF)c(=O)c2)CC3)nc1` [Example 1.29]: the EC50 was 271 nM under setting [1] and 100 to 500 nM under setting [2].

As for `COc1ccc(COc2ccc3c(c2)CNCC3)nc1` [Example 1.30, 7-[(5-Methoxypyridin-2-yl)methoxy]-1,2,3,4-tetrahydroisoquinolin-2-ium chloride], the EC50 runs as follows: under setting [1], 1000 nM; under setting [2], above 500 nM.

For the molecule `COc1ccc(COc2ccc3c(c2)C(=O)N(Cc2ccc(OC)nc2)CC3)nc1` [Example 2, 7-[(5-Methoxypyridin-2-yl)methoxy]-2-[(6-methoxypyridin-3-yl)methyl]-1,2,3,4-tetrahydroisoquinolin-1-one], the EC50 under setting [1] was found to be 98.5 nM and the EC50 under setting [2] is below 100 nM.

`COc1ccc(COc2ccc3c(c2)CN(c2ncc(OC)cn2)CC3)nc1` [Example 3, 7-[(5-Methoxypyridin-2-yl)methoxy]-2-(5-methoxypyrimidin-2-yl)-1,2,3,4-tetrahydroisoquinoline]: the EC50 runs as follows: under setting [1], 1.26 nM; under setting [2], below 100 nM.

Turning to `COc1ccc(COc2ccc3c(c2)CN(C(=O)N2CCN(C)CC2)CC3)nc1` [Example 4, 7-[(5-Methoxypyridin-2-yl)methoxy]-2-(4-methylpiperazine-1-carbonyl)-1,2,3,4-tetrahydroisoquinoline], the EC50 under setting [1] amounted to 73.2 nM and the EC50 under setting [2] is below 100 nM.

With `COc1ccc(NC(=O)N2CCc3ccccc3C2)cn1` [Example 4.1], the EC50 under setting [1] amounted to 1000 nM and the concentration giving a half-maximal response (EC50) under setting [2] was above 500 nM.

Turning to `COc1ccc(COc2ccc3c(c2)CN(C(=O)Nc2ccc(OC)nc2)CC3)nc1` [Example 4.2], the EC50 was 6.92 nM under setting [1] and below 100 nM under setting [2].

`COc1ccc(COc2ccc3c(c2)CN(C(=O)N2CCc4cc(OC)ncc4C2)CC3)nc1` [Example 4.3]: the EC50 by setting is: under setting [1], 3.67 nM; under setting [2], below 100 nM.

Take `COc1ccc(COc2ccc3c(c2)CN(C(=O)N2CC4(COC4)C2)CC3)nc1` [Example 4.4]: the EC50 runs as follows: under setting [1], 1000 nM; under setting [2], above 500 nM.

Turning to `COc1ccc(COC(=O)N2CCc3ccccc3C2)cn1` [Example 5, (6-Methoxypyridin-3-yl)methyl 1,2,3,4-tetrahydroisoquinoline-2-carboxylate], the concentration giving a half-maximal response (EC50) reads like this: under setting [1], 1000 nM; under setting [2], above 500 nM.

As for `COc1ccc(COc2ccc3c(c2)CN(C(=O)OCc2ccc(OC)nc2)CC3)nc1` [Example 5.1], the EC50 is, setting by setting: under setting [1], 1.65 nM; under setting [2], below 100 nM.

With `COc1ccc(COc2ccc3c(c2)CN(c2cncc(OC)c2)CC3)nc1` [Example 6.1], the EC50 by setting is: under setting [1], 2.65 nM; under setting [2], below 100 nM.

On to `COc1ccc(COc2cnc3c(c2)CN(c2ncc(OC)cn2)CC3)nc1` [Example 6.2], for which the EC50 reads like this: under setting [1], 1.97 nM; under setting [2], below 100 nM.

As for `COc1ccc(COc2cnc3c(c2)CN(c2cncc(OC)c2)CC3)nc1` [Example 6.3], the EC50 runs as follows: under setting [1], 7.86 nM; under setting [2], below 100 nM.

As to `COc1ccc(COc2ccc3c(c2)CN(c2ccc(OC)nc2)CC3)nc1` [Example 6], the concentration for a half-maximal effect (EC50) by setting is: under setting [1], 2.21 nM; under setting [2], below 100 nM.

On to `COc1ccc(COc2ccc3c(c2)CN(Cc2ccc(OC)nc2)CC3)nc1` [Example 7], for which the EC50 under setting [1] is 137 nM and the EC50 under setting [2] lay in the range of 100 to 500 nM.
